Test results taken from the NIST ThermoML archive (doi:10.1021/je501135p).
± gives the expanded uncertainty stated by the source.

Conditions: Liquid, Ebulliometric method (Recirculating still)

With `OC1CCCCC1` [cyclohexanol] the “vapor or sublimation pressure” value (433.38 K) was 99 ± 3 kPa.

With `O=C1CCCCC1` [cyclohexanone] the “vapor or sublimation pressure” value (428.01 K) was 99 ± 3 kPa.

With `O=C1C=CCCC1` [2-cyclohexen-1-one] the “vapor or sublimation pressure” value (444.48 K) was 99 ± 1 kPa and the “vapor or sublimation pressure” value (444.51 K) was 99 ± 1 kPa.
